This is an account of results in ChEMBL document CHEMBL3301361, “Experimental in vitro DMPK and physicochemical data on a set of publicly disclosed compounds”.

Data set [1] is described as follows: physchem. Particulars: pH 7.4 buffer.
The next data set is described as follows: in vitro. Particulars: human.
A short description of data set [2]: physchem. Conditions: octan-1-ol/water, pH 7.4, LogD7.4.

In brackets after ≈: the same amount, converted by molar mass. Bounds are passed on as bounds.

In turn, `CN(CCOc1ccccc1-c1cc(C(N)=O)c(NC(N)=O)s1)Cc1ccccc1` had a thermodynamic solubility in “physchem [1]” of 1.5 µM (≈ 0.637 µg/mL). The compound also yielded an intrinsic metabolic clearance (microsomal CLint) in the data set “in vitro” (liver microsomes) greater than 150 µL/min/mg. This compound also yielded a logD in “physchem [2]” of 3.46.
`O=c1ncn2nc(Sc3ccc(F)cc3F)ccc2c1-c1c(Cl)cccc1Cl` [NEFLAMAPIMOD] had a solubility (thermodynamic) in “physchem [1]” of 18.6 µM (≈ 8.11 µg/mL). Besides, in the data set “in vitro” (liver microsomes), the microsomal CLint stood at 3 µL/min/mg. This compound also showed a pH-dependent lipophilicity (logD) in the data set “physchem [2]” of 2.74.
The like results for `CCN(C(=O)Cc1ccc(S(C)(=O)=O)cc1)C1CCN(CCC(c2ccccc2)c2ccc(NC(C)=O)cc2)CC1` (stereo unspecified) were, in that order, 692 µM (≈ 398 µg/mL), less than 3 µL/min/mg and 2.09.
In turn, `COc1ccccc1C(=O)Nc1ccc(C)c(-n2cnc3ccc(N4CCN(C)CC4)cc3c2=O)c1` gave a solubility (thermodynamic) in the data set “physchem [1]” of 75.9 µM (≈ 36.7 µg/mL). This compound also displayed a microsomal CLint in the data set “in vitro” (liver microsomes) of 7 µL/min/mg. In “physchem [2]”, this compound returned a logD of 2.93.
`CC(=O)Nc1ccc(CNc2[nH]nc3cccc(Oc4ccc(S(C)(=O)=O)cc4)c23)cc1` registered a thermodynamic solubility in the data set “physchem [1]” of 4.3 µM (≈ 1.94 µg/mL). In “in vitro” (liver microsomes), this compound came in with an intrinsic clearance (microsomal CLint) of 75 µL/min/mg. Further, in the data set “physchem [2]”, the logD turned out to be 2.63.
For the compound `CN(C(=O)Cc1ccc(F)cc1)C1CCN(CCC(c2ccccc2)c2ccccc2)CC1`, in “physchem [1]”, the solubility (thermodynamic) came out at 129 µM (≈ 57.3 µg/mL). For the same compound, in the data set “in vitro” (liver microsomes), the microsomal CLint is less than 3 µL/min/mg.
Compound `CCN(C(=O)NCc1c(F)cccc1F)C1CCN(CCC(c2ccccc2)c2ccccc2)CC1` gave a solubility (thermodynamic) in the data set “physchem [1]” of 24 µM (≈ 11.8 µg/mL). In addition, in the data set “in vitro” (liver microsomes), the microsomal CLint was found to be 6 µL/min/mg.
On the same counts, the results for `c1ccc2c(c1)[nH]c1cnccc12` [NORHARMANE] are 339 µM (≈ 57 µg/mL) and 89 µL/min/mg.
The like results for `CSc1nccc(Nc2cc(NC(=O)c3cc(F)cc(N4CCOCC4)c3)ccc2C)n1` were, in that order, 0.7 µM (≈ 0.317 µg/mL) and 83 µL/min/mg.
Regarding `Fc1cnc(Nc2ccccc2)nc1Nc1ccccc1`, the thermodynamic solubility in “physchem [1]” was 1.3 µM (≈ 0.364 µg/mL). The microsomal CLint in the data set “in vitro” (liver microsomes) was 7 µL/min/mg.
Consider `CN(C)CC(O)COc1ccc(Nc2ncc(Cl)c(Nc3ccccc3)n2)cc1` (stereo unspecified), for which the thermodynamic solubility in the data set “physchem [1]” was 38.9 µM (≈ 16.1 µg/mL). This compound yielded a microsomal CLint in the data set “in vitro” (liver microsomes) of 5 µL/min/mg.
The like results for `CCN(C(=O)Cc1ccc(S(C)(=O)=O)cc1)C1CCN(CCC(c2ccccc2)c2ccc(C)cc2)CC1` (stereo unspecified) were, in that order, 75.9 µM (≈ 40.4 µg/mL) and 66 µL/min/mg.
Regarding `CS(=O)(=O)C1(c2cc(N3CCOCC3)nc(-c3cccc4[nH]ccc34)n2)CC1`, in the data set “physchem [1]”, the thermodynamic solubility was determined as 4.6 µM (≈ 1.83 µg/mL). This compound also had a microsomal CLint in “in vitro” (liver microsomes) of 11.2 µL/min/mg.
Compound `CCN(C(=O)Cc1ccc(S(C)(=O)=O)cc1)C1CCN(CC[C@@H](c2ccccc2)N2CCN(S(=O)(=O)C(F)(F)F)CC2)CC1` yielded a solubility (thermodynamic) in “physchem [1]” of 288 µM (≈ 190 µg/mL). In addition, in “in vitro” (liver microsomes), the microsomal CLint amounted to 18 µL/min/mg.
In turn, `Cc1c(Sc2ccc(Cl)cc2)c2cc(Cl)ccc2n1CC(=O)O` yielded a microsomal CLint in the data set “in vitro” (liver microsomes) of less than 3 µL/min/mg. The log distribution coefficient (logD) in “physchem [2]” amounted to 2.87.
On the same counts, the results for `O=C(O)c1cccc(-c2ccc3c(C(=O)NCC45CC6CC(CC(C6)C4)C5)c(Cl)ccc3n2)c1` are 33 µL/min/mg and 2.84.
Take `Cc1ccc(S(=O)(=O)NC(=O)N2CCC(N3CCC(Oc4ccc(F)c(F)c4)CC3)CC2)cc1`: the microsomal CLint in the data set “in vitro” (liver microsomes) is less than 3 µL/min/mg. The compound further displayed a logD in “physchem [2]” of 0.75.
Regarding `COc1ccc(C=NN=Cc2ccc(OC)c(OC)c2)cc1OC`, the intrinsic metabolic clearance (microsomal CLint) in the data set “in vitro” (liver microsomes) worked out at 19 µL/min/mg. In the data set “physchem [2]”, this compound returned a log distribution coefficient (logD) of 3.38.
The like results for `Cc1ccc(C(=O)NC2CCC2)cc1-n1cnc2ccc(N3CCN(C)CC3)cc2c1=O` were, in that order, 5 µL/min/mg and 2.25.
Regarding `O=C(Nc1ccc(S(=O)(=O)N2CCOCC2)cc1)c1cc(Cl)ccc1NS(=O)(=O)c1ccc(Cl)s1`, the intrinsic metabolic clearance (microsomal CLint) in “in vitro” (liver microsomes) was less than 3 µL/min/mg. In “physchem [2]”, this compound came in with a logD of 3.02.
`C(#Cc1n[nH]c2ccccc12)c1ccccc1` had a microsomal CLint in “in vitro” (microsomes) of 35 µL/min/mg. Also, the pH-dependent lipophilicity (logD) in “physchem [2]” came to 4.31.
With `C[C@H](CO)Nc1nc(SCc2cccc(F)c2F)nc2[nH]c(=O)ccc12`, the microsomal CLint in “in vitro” (liver microsomes) came to 9 µL/min/mg. For the same compound, in the data set “physchem [2]”, the logD was found to be 3.36.
`O=C(CC12CC3CC(CC(C3)C1)C2)Nc1ccc2[nH]ncc2c1`: the intrinsic clearance (microsomal CLint) in the data set “in vitro” (liver microsomes) is 21 µL/min/mg. This compound also yielded a logD in the data set “physchem [2]” of 4.03.
